Results: patent publication US6586441B2, “Adenosine receptor ligands and their use in the treatment of disease” (Hoffman-La Roche Inc., priority 2000, dated 2003)

Target: T1, human adenosine A2A receptor (Homo sapiens, UniProt P29274)
T1 construct: expressed in transfected cells; host or cells: CHO cells, semliki forest virus expression system; membrane preparation
Assay: Human adenosine A2A receptor [3H]-SCH-58261 binding assay
Conditions: human A2a receptor, membranes of CHO cells, [3H]-SCH-58261
Method: The gene encoding human adenosine A2A receptor was recombinantly introduced and expressed in chinese hamster ovary (CHO) cells using the semliki forest virus expression system. Cells were harvested, washed twice by centrifugation, homogenised and again washed by centrifugation. The final washed membrane pellet was suspended in a Tris (50 mM) buffer containing 120 mM NaCl, 5 mM KCl, 2 mM CaCl2 and 10 mM MgCl2 (pH 7.4) (buffer A). The [^3H]-SCH-58261 (Dionisotti et al., 1997, Br. J. Pharmacol. 121, 353; 1 nM) binding assay was carried out in 96-well plates in the presence of 2.5 μg of membrane protein, 0.5 mg of Ysi-poly-1-lysine SPA beads and 0.1 U adenosine deaminase in a final volume of 200 μl of buffer A. Non-specific binding was defined using xanthine amine congener (XAC; […]). Compounds were tested at 10 concentrations from 10 μM-0.3 nM. All assays were conducted in duplicate and repeated at least two times. Assay plates were incubated for 1 hour at room temperature before centrifugation and then bound ligand determined using a Packard Topcount scintillation counter. IC50 values were calculated using a non-linear curve fitting program and Ki values calculated using the Cheng-Prussoff equation.

T1 sequence (P29274 whole entry): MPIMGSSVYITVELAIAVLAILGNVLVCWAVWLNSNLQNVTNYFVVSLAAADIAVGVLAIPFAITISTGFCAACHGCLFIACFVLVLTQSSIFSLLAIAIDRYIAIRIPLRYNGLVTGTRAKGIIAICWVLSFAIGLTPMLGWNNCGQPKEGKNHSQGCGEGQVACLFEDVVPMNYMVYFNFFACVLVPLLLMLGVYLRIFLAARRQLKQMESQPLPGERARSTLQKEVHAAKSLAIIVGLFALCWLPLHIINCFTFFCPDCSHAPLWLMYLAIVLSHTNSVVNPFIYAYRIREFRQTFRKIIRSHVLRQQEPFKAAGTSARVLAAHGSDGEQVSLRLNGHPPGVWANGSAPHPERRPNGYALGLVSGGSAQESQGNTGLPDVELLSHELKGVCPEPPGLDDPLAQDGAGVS

Row | pKi (affinity to the human A2a receptor) | SMILES
1 | 8.12 | Cc1ccnc(CNc2nc(N)nc(C3=CCCO3)c2C#N)c1 [Example 464, 2-Amino-4-(4,5-dihydro-furan-2-yl)-6-[(4-methyl-pyridin-2-ylmethyl)-amino]-pyrimidine-5-carbonitrile]
2 | 8.97 | Cc1cnc(COc2nc(N)nc(-c3ccc(C)o3)c2C#N)c(C)c1 [Example 466, 2-Amino-4-(3,5-dimethyl-pyridin-2-ylmethoxy)-6-(5-methyl-furan-2-yl)-pyrimidine-5′-carbonitrile]
3 | 8.96 | N#Cc1c(SCCc2ccccn2)nc(N)nc1-c1ccc(Cl)o1 [Example 478]
4 | 8.88 | N#Cc1c(NCc2ccccc2Br)nc(N)nc1-c1ccc(Br)o1 [Example 512, 2-Amino-4-(2-bromo-benzylamino)-6-(5-bromo-furan-2-yl)-pyrimidine-5-carbonitrile]

Same assay, conditions: human A2a receptor, membranes of CHO cells, [3H]-SCH-58261; read-out: pKi (affinity to the human A2a receptor) (converted)

Row | SMILES | Ki
5 | N#Cc1c(NCc2cccc(C(F)(F)F)c2)nc(N)nc1-c1ccco1 [Example 346, 2-Amino-4-furan-2-yl-6-(3-trifluoromethyl-benzylamino)-pyrimidine-5-carbonitrile] | 2.4 nM
6 | Cc1ccc(CNc2nc(N)nc(-c3ccco3)c2C#N)cc1C [Example 347, 2-Amino-4-(3,4-dimethyl-benzylamino)-6-furan-2-yl-pyrimidine-5-carbonitrile] | 1.66 nM
7 | Cc1ccnc(CNc2nc(N)nc(-c3ccco3)c2C#N)c1 [Example 348, 2-Amino-4-furan-2-yl-6-[(4-methyl-pyridin-2-ylmethyl)-amino]-pyrimidine-5-carbonitrile] | 2.09 nM
8 | Nc1nc(SCCc2ccccn2)c(I)c(-c2ccco2)n1 [Example 352, 4-Furan-2-yl-5-iodo-6-(2-pyridin-2-yl-ethylsulfanyl)-pyrimidin-2-yl-amine] | 5.13 nM
9 | Nc1nc(SCCc2ccccn2)c(Br)c(-c2ccco2)n1 [Example 353, 5-Bromo-4-furan-2-yl-6-(2-pyridin-2-yl-ethylsulfanyl)-pyrimidin-2-yl-amine] | 3.8 nM
10 | Nc1nc(SCCc2ccccn2)c(Cl)c(-c2ccco2)n1 [Example 354, 5-Chloro-4-furan-2-yl-6-(2-pyridin-2-yl-ethylsulfanyl)-pyrimidin-2-yl-amine] | 4.9 nM
11 | N#Cc1c(OCc2ccccn2)cc(N)nc1-c1ccco1 [Example 355, 6-Amino-2-furan-2-yl-4-(pyridin-2-yl-methoxy)-nicotinonitrile] | 3.02 nM
12 | N#Cc1c(SCCc2ccccn2)cc(N)nc1-c1ccco1 [Example 356, 6-Amino-2-furan-2-yl-4-(2-pyridin-2-yl-ethylsulfanyl)-nicotinonitrile] | 0.912 nM
13 | N#Cc1c(NCc2ccc(C(F)(F)F)cc2)cc(N)nc1-c1ccco1 [Example 357] | 9.12 nM
14 | N#Cc1c(NCc2ccccc2Br)nc(N)nc1-c1ccco1 [Example 359, 2-Amino-4-(2-bromo-benzylamino)-6-furan-2-yl-pyrimidine-5-carbonitrile] | 0.631 nM
15 | N#Cc1c(NCc2ccccc2Cl)nc(N)nc1-c1ccco1 [Example 360, 2-Amino-4-(2-chloro-benzylamino)-6-furan-2-yl-pyrimidine-5-carbonitrile] | 0.589 nM
16 | Cc1cccnc1COc1nc(N)nc(-c2ccco2)c1C#N [Example 361, 2-Amino-4-furan-2-yl-6-(3-methyl-pyridin-2-yl-methoxy)-pyrimidine-5-carbonitrile] | 0.603 nM
17 | Cc1ccc(COc2nc(N)nc(-c3ccco3)c2C#N)nc1 [Example 362, 2-Amino-4-furan-2-yl-6-(5-methyl-pyridin-2-yl-methoxy)-pyrimidine-5-carbonitrile] | 2.63 nM
18 | Cc1ccc(CNc2nc(N)nc(-c3ccco3)c2C#N)nc1 [Example 363, 2-Amino-4-furan-2-yl-6-[(5-methyl-pyridin-2-yl-methyl)-amino]-pyrimidine-5-carbonitrile] | 3.24 nM
19 | N#Cc1c(NCc2ccc3ccccc3n2)cc(N)nc1-c1ccco1 [Example 364, 6-Amino-2-furan-2-yl-4-[(quinolin-2-ylmethyl)-amino]-nicotinonitrile] | 3.89 nM
20 | N#Cc1c(OCc2cc3ccccc3cn2)nc(N)nc1-c1ccco1 [Example 366, 2-Amino-4-furan-2-yl-6-(isoguinolin-3-yl-methoxy)-pyrimidine-5-carbonitrile] | 1.82 nM
21 | N#Cc1c(NCc2cc3ccccc3cn2)nc(N)nc1-c1ccco1 [Example 367, 2-Amino-4-furan-2-yl-6-[(isoguinolin-3-yl-methyl)-amino]-pyrimidine-5-carbonitrile] | 2.29 nM
22 | Cc1cccnc1CNc1nc(N)nc(-c2ccco2)c1C#N [Example 368, 2-Amino-4-furan-2-yl-6-[(3-methyl-pyridin-2-yl-methyl)-amino]-pyrimidine-5-carbonitrile] | 1.86 nM
23 | N#Cc1c(SCCc2ccccn2)nc(N)nc1-c1cccs1 [Example 370] | 8.91 nM
24 | N#Cc1c(NCc2ccccn2)cc(N)nc1-c1ccco1 [Example 371, 6-Amino-2-furan-2-yl-4-[(pyridin-2-yl-methyl)-amino]-nicotinonitrile] | 8.13 nM

Further lines, results first:

Row | Ki | SMILES
25 | 5.13 nM | Cc1ccnc(COc2nc(N)nc(-c3ccco3)c2C#N)c1 [Example 373, 2-Amino-4-furan-2-yl-6-(4-methyl-pyridin-2-yl-methoxy)-pyrimidine-5-carbonitrile]
26 | 9.33 nM | C=Cc1ccc(CNc2nc(N)nc(-c3ccco3)c2C#N)cc1 [Example 374, 2-Amino-4-furan-2-yl-6-(4-vinyl-benzylamino)-pyrimidine-5-carbonitrile]
27 | 4.57 nM | Cc1cccnc1CNc1cc(N)nc(-c2ccco2)c1C#N [Example 376, 6-Amino-2-furan-2-yl-4-[(3-methyl-pyridin-2-yl-methyl)-amino]-nicotinonitrile]
28 | 7.76 nM | Cc1ccc(CNc2cc(N)nc(-c3ccco3)c2C#N)nc1 [Example 377, 6-Amino-2-furan-2-yl-4-[(5-methyl-pyridin-2-yl-methyl)-amino]-nicotinonitrile]
29 | 3.47 nM | Cc1ccc(COc2nc(N)nc(-c3ccco3)c2C#N)cn1 [Example 381, 2-Amino-4-furan-2-yl-6-(6-methyl-pyridin-3-yl-methoxy)-pyrimidine-5-carbonitrile]
30 | 1.91 nM | Cc1cccnc1COc1cc(N)nc(-c2ccco2)c1C#N [Example 383, 6-Amino-2-furan-2-yl-4-(3-methyl-pyridin-2-yl-methoxy)-nicotinonitrile]
31 | 3.02 nM | N#Cc1c(OCCc2ccccn2)cc(N)nc1-c1ccco1 [Example 384, 6-Amino-2-furan-2-yl-4-(2-pyridin-2-yl-ethoxy)-nicotinonitrile]
32 | 8.32 nM | N#Cc1c(N)nc(SCc2ccccc2)c(C#N)c1-c1cccs1 [Example 389, 2-Amino-6-benzylsulfanyl-4-thiophen-2-yl-pyridine-3.5-dicarbonitrile]
33 | 0.692 nM | Cc1cnc(COc2nc(N)nc(-c3ccco3)c2C#N)c(C)c1 [Example 401, 2-Amino-4-(3,5-dimethyl-pyridin-2-ylmethoxy)-6-furan-2-yl-pyrimidine-5-carbonitrile]
34 | 2.14 nM | Cc1cnc(CNc2nc(N)nc(-c3ccco3)c2C#N)c(C)c1 [Example 402, 2-Amino-4-[(3,5-dimethyl-pyridin-2-ylmethyl)-amino]-6-furan-2-yl-pyrimidine-5-carbonitrile]
35 | 7.41 nM | N#Cc1c(OCCc2ccccn2)nc(N)nc1-c1cccc(F)c1 [Example 405, 2-Amino-4-(3-fluoro-phenyl)-6-(2-pyridin-2-yl-ethoxy)-pyrimidine-5-carbonitrile]
36 | 1.35 nM | Cc1coc(-c2nc(N)nc(SCCc3ccccn3)c2C#N)c1 [Example 422, 2-Amino-4-(4-methyl-furan-2-yl)-6-(2-pyridin-2-yl-ethylsulfanyl)-pyrimidine-5-carbonitrile]
37 | 3.02 nM | Cc1coc(-c2nc(N)nc(OCCc3ccccn3)c2C#N)c1 [Example 423, 2-Amino-4-(4-methyl-furan-2-yl)-6-(2-pyridin-2-yl-ethoxy)-pyrimidine-5-carbonitrile]
38 | 1.17 nM | N#Cc1c(SCCc2ccccn2)nc(N)nc1-c1cc(Br)co1 [Example 521, 2-Amino-4-(4-bromo-furan-2-yl)-6-(2-pyridin-2-yl-ethylsulfanyl)-pyrimidine-5-carbonitrile]
39 | 5.75 nM | N#CCc1ccc(-c2nc(N)nc(SCCc3ccccn3)c2C#N)o1 [Example 524, 2-Amino-4-(5-cyanomethyl-fran-2-yl)-6-(2-pyridin-2:yl-ethylsulfanyl)-pyrimidine-5-carbonitrile]
40 | 0.871 nM | N#Cc1c(OCCc2ccccn2)nc(N)nc1-c1ccc(Cl)o1 [Example 525, 2-Amino-4-(5-chloro-furan-2-yl)-6-(2-pyridin-2-yl-ethoxy)-pyrimidine-5-carbonitrile]
41 | 4.27 nM | Cc1cnc(COc2nc(N)nc(-c3ccc(Cl)o3)c2C#N)c(C)c1 [Example 526, 2-Amino-4-(5-chloro-furan-2-yl)-6-(3,5-dimethyl-pyridin-2-ylmethoxy)-pyrimidine-5-carbonitrile]
42 | 1.74 nM | Cc1cccnc1COc1nc(N)nc(-c2ccc(Cl)o2)c1C#N [Example 530, 2-Amino-4-(5-chloro-furan-2-yl)-6-(3-methyl-pyridin-2-yl-methoxy)-pyrimidine-5-carbonitrile]
